Reference: patent publication US20090042988A1, “PHARMACEUTICAL COMPOSITIONS CONTAINING A MEGLITINIDE COMPOUND FOR PREVENTING HEPATIC FIBROSIS” (KURUME UNIVERSITY, priority 2006, published 2009)
“And” between values parts separate entries of the source, which are not always exact repeats. Equal values may be shown once. “Also recorded” adds a separate entry of the source.

Assays:
fatty liver = test: Degree of fatty liver by liver/spleen ratio of CT in NASH patients with diabetes given nateglinide; assay type: in vivo
Source text: 5 patients were selected as the subjects, who had clinical features of fatty liver found by the abdominal ultrasound or the abdominal CT, had negative test results in various virus markers and autoantibody, could deny a drinking history or a drug history; were diagnosed as NASH by a liver biopsy based on Brunt's scale (Am J Gastroenterol. 1999 94: 2467-2474), and had diabetes on which diet and exercise therapies could not sufficiently produce the therapeutic effect. […] Am J Gastroenterol. 1999 94: 2467-2474).

[1] = Diabetic indexes (HbA1c, fasting blood glucose, blood glucose 2 hours after glucose tolerance test) in NASH patients with diabetes given nateglinide; assay type: in vivo; details: per patient, Case 1-5
Method: In 0th week and 12th week or 16 week, as the diabetic indexes, the fasting blood glucose, the blood glucose 2 hours after the glucose tolerance test, and hemoglobin A1c, as the evaluation of the liver, the degree of fatty liver determined by liver/spleen ratio of CT and liver biopsy tissues for each case were histologically analyzed to score hepatocellular degeneration, pericellular fibrosis, perivenular fibrosis, portal fibrosis or the like (Brunt E M et al. Am J Gastroenterol. 1999 94: 2467-2474).

liver biopsy tissues [2] = details: 16 weeks, 5 patients with diabetes diagnosed as NASH (Non-patent Literature 10); cited from earlier work
ATP-citrate lyase = details: nateglinide administered before glucose load; diabetic model animal; cited from earlier work
liver biopsy tissues [3] = test: Histological scoring of liver biopsy tissues (Brunt's scale) in NASH patients with diabetes given nateglinide;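 also: patients dosed orally with 90 mg thrice daily ahead of meals over 16 weeks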
Method: Meanwhile, the degree of hepatic fibrosis herein mentioned is evaluated by the steps comprising of treating the tissue section of liver biopsy samples with the method of specifically staining the fibrillary element such as Masson's trichrome stain, Sweet's reticulin stain or Azan stain; and then determining the quantity thereof per distinctive fibrosis images or evaluating them as stages. As one example, since hepatocellular necrosis or degeneration in NASH often occurs in areas of zone 3, the portal fibrosis is evaluated corresponding to the degree thereof on a scale of 0 to 4 when pericellular fibrosis, perivenular fibrosis or pathology of the region corresponding to the areas of zone 3 is advanced. Further, the degree is comprehensively classified as: Stage 1: perivascular/perisinusoidal/pericellular fibrosis partially or widely exists centering on zone 3; Stage 2: portal fibrosis partially or widely exists in addition to Stage 1; Stage 3: bridging fibrosis partially or widely exists; and Stage 4: cirrhosis.
Hepatocellular degeneration is determined as ballooning of hepatocytes after treating the section of liver biopsy tissues with hematoxylin-eosin staining. Hepatocellular degeneration is evaluated based on the number of the cells observed in the visual field (Non-patent Literature 11).

[4] = twelve-week administration; 53 fatty liver cases with diabetes or 5 cases where GPT>GOT; cited from earlier work
[5] = Δ: value before admin. − value after admin., per patient, Case 1-5
[6] = after nateglinide 90 mg orally three times per day (12th or 16th week)
[7] = Δ: value before admin. − value after admin., 0th and 12th weeks
[8] = after nateglinide administration, Brunt score, per patient, Case 1-5
[9] = after nateglinide administration, score, per patient, Case 1-5

For `CC(C)[C@H]1CC[C@H](C(=O)N[C@H](Cc2ccccc2)C(=O)O)CC1` [nateglinide, (−)-N-(trans-4-isopropylcyclohexanecarbonyl)-D-phenylalanine], the “CT score liver/spleen ratio” value (fatty liver; after nateglinide administration, per patient, Case 1-5) was 1 and 0.9 and 0.95 and 0.8 and 1.05, the “improvement effect on fatty liver” value (fatty liver; cases whose diabetic indexes were not improved) was “an improvement effect on fatty liver was low” and the “Δ CT score liver/spleen ratio” value (fatty liver; [5]) was −0.09 and −0.335 and −0.06 and −0.2 and −0.25. The “BG 2 hrs. (blood glucose 2 hours after the glucose tolerance test)” value [1, 6] was 199 mg/dL and 105 mg/dL and 238 mg/dL and 337 mg/dL and 118 mg/dL, the fasting blood glucose [1, 6] was 106 mg/dL and 119 mg/dL and 115 mg/dL and 163 mg/dL and 100 mg/dL and the HbA1c ([1]; after nateglinide 90 mg orally three times per day before each meal (12th or 16th week)) was 5.5% and 5.6% and 6.2% and 7.1% and 5%. For the same molecule, the “Δ BG 2 hrs. (blood glucose 2 hours after the glucose tolerance test)” value [1, 7] was 17 mg/dL and 89 mg/dL and 30 mg/dL and 88 mg/dL and 48 mg/dL, the “Δ HbA1c” value [1, 7] was 0.1% (2×) and −0.1% and 0.5% and 0.8% and the “Δ fasting blood glucose” value [1, 7] was 20 mg/dL and -6 mg/dL and -5 mg/dL and 7 mg/dL and 39 mg/dL. The “fatty liver, hepatic inflammation, hepatic degeneration, hepatic fibrosis by liver biopsies before and after administration” value (liver biopsy tissues [2]) was “the fatty liver diminished, and hepatic inflammation, hepatic degeneration or hepatic fibrosis was improved”, the “glucose-induced expression of ATP-citrate lyase in the liver” value (ATP-citrate lyase) was “inhibits glucose-induced expression of ATP-citrate lyase” and the grade (liver biopsy tissues [3]; [8]) was 1 (2×) and 2 (2×) and 1.5. For the same molecule, the stage (liver biopsy tissues [3]; [8]) was 2 (2×) and 1 (2×) and 1.5, the hepatocellular degeneration (liver biopsy tissues [3]; [9]) was 1 (4×) and 2 and the pericellular fibrosis (liver biopsy tissues [3]; [9]) was 1 (4×) and 0. The perivenular fibrosis (liver biopsy tissues [3]; [9]) was 1 (4×) and 2, the “portal area neutrophil infiltration” value (liver biopsy tissues [3]; [9]) was 0 (3×) and 1 (2×) and the portal fibrosis (liver biopsy tissues [3]; [9]) was 2 (2×) and 1 and 1.5 and 0.5. The portal vein inflammation (liver biopsy tissues [3]; [9]) was 0 (4×) and 1, the “improvement of fatty liver, hepatocellular degeneration, pericellular fibrosis, perivenular fibrosis or portal fibrosis” value (liver biopsy tissues [3]; cases whose diabetic indexes were improved by nateglinide) was “improvements were also observed” and the “improvement of hepatocellular degeneration, pericellular fibrosis, perivenular fibrosis or portal fibrosis” value (liver biopsy tissues [3]; cases whose diabetic indexes were not improved (Cases 1 and 3)) was “hepatic inflammation, degeneration or fibrosis thereof was improved; also recorded: almost the same improvements were observed”. For the same molecule, the Δ grade (liver biopsy tissues [3]; [5]) was 1 (3×) and 0.5 and 0, the Δ hepatocellular degeneration (liver biopsy tissues [3]; [5]) was 1 (3×) and 0 and 2 and the Δ pericellular fibrosis (liver biopsy tissues [3]; [5]) was 2 (2×) and 1 (3×). The Δ perivenular fibrosis (liver biopsy tissues [3]; [5]) was 1, the “Δ portal area neutrophil infiltration” value (liver biopsy tissues [3]; [5]) was 0 (3×) and 1 (2×) and the Δ portal fibrosis (liver biopsy tissues [3]; [5]) was 1 (2×) and 0.5 (2×) and 0. For the same molecule, the “Δ portal vein inflammation” value (liver biopsy tissues [3]; [5]) was 1 (4×) and 2, the Δ stage (liver biopsy tissues [3]; [5]) was 1 (2×) and 0 (2×) and 0.5 and the “GOT and GPT (index of hepatic injury)” value [4] was “statistically significantly inhibits GOT and GPT”.
